Earlier results in patent US20240307345A1, “R-MDMA and S-MDMA TO ASSIST PSYCHOTHERAPY” (Universitatsspital Basel, priority 2022, published 2024).

What was measured:
humans = details: earlier human study; R-MDMA doses up to 200 mg; cited from earlier work
rhesus monkeys = details: cited from earlier work
prolactin (PRL) = details: preclinical research; cited from earlier work

Compound | activity in humans (humans) | potency to maintain self-administration (rhesus monkeys) | release of prolactin (PRL) (prolactin (PRL))
CN[C@@H](C)Cc1ccc2c(c1)OCO2 [S-MDMA, S(+)-MDMA] | more active than the R-enantiomer | more potent than R-MDMA | 
CN[C@H](C)Cc1ccc2c(c1)OCO2 [R-MDMA, R(−)-MDMA] |  |  | release prolactin
